Experiments:
[1] = test system: ACAT; assay: ACAT inhibition; format: biochemical; details: read-out: half maximal inhibitory concentration (IC50), ACAT
Excerpt: It has been reported that an induction of cholesterol efflux resulting in a reduction of Aβ formation/deposition in vitro and in vivo (Kim, et al., J Alzheimers Dis, 2009, 16:121-131). For additional Detail, see the attached manuscript entitled, “Inhibition of Acyl-CoA: Cholesterol Acyltransferase (ACAT), Overexpression of Cholesterol Transporter Gene, and Protection of Amyloid β (Aβ) Oligomers-Induced Neuronal Cell Death by Tricylic Pyrone Molecules” which is incorporated herein.

[2] = Plasma and brain concentrations after i.v. administration in mice; format: in vivo
Description: FIGS. 3A-3B. FIG. 3A. CP2 and TP70 plasma and brain concentrations following i.v. injection in mice (n=3). FIG. 3B. […] The drug concentration was determined using HPLC and mass spectrometry.
HPLC/mass spectrometry were employed to quantify CP2 and TP70 in the plasma and brain after i.v. administration in mice. The CP2 concentration was 200-300 μM in the mouse brain between 0.5 and 2 h following 25 mg/kg i.v. administration (FIG. 3A). Similarly, TP70 concentration reached 190 μM in plasma at 5 min and 160 μM in brain at 2 h following 25 mg/Kg i.v. administration (FIGS. 3A and 3B).

[3] = Plasma PK and bioavailability, iv versus po, in mice; format: in vivo
Description: FIG. 5. Plasma concentrations of TP70 following iv or po administration (25 mg/Kg; iv, n=3 in each timepoint; or po, n=3 in each timepoint). Plasma concentrations were plotted against time post-dosing.
Since the drug will ultimately be administered orally, the bioavailability (F) of TP70 was determined in mice (male C57BL/6, 4 to 6 months old, n=3/group). Each mouse was treated with TP 70 (25 mg/kg). The drug was initially dissolved in pure dimethyl sulfoxide (DMSO) and then diluted with 0.5% hydroxypropylcellulose (HPC) in distilled water in a final solution containing 2% DMSO. At different time points about 50 μl plasma was sampled via tail cut for blood collection with a tube treated with ethylenediaminetetraacetic acid (EDTA). The compound was measured using HPLC/mass spectrometer. The maximal plasma concentration following iv administration is 16.6±6.1 μg/ml (equivalent to 42 μM) and po is 6.9±0.17 μg/ml (equivalent to 17 μM).

[4] = test system: 5×FAD mice; assay: In vivo efficacy in 5×FAD mice
Description: FIGS. 6A-6E. 2-month-old 5×FAD mice were treated with TP70 or vehicle for 6 weeks as described in the text. Four cortical sections evenly distributed through the cerebrum were taken from one hemisphere of each mouse (6 mice in each treatment group) and fluorescently stained with the amyloid dye FSB (blue) and the nuclear dye propidium iodide (PI, red). A: Representative sections that show the PI stain. B: Representative sections that only show the FSB stain. C: Fluorescent staining was objectively quantified by LSC. […] E: A representative Western blot containing the soluble fractions of three mice of each group was analyzed for soluble Aβ dimer (see ref 59 for the method).
Although the mechanism of neuron loss in Alzheimer's disease (AD) remains elusive, it is associated with cerebral accumulation of Aβ42. The 5×FAD mouse model of amyloid deposition expresses five familial AD (FAD) mutations that are additive in driving Aβ42 overproduction.

[5] = Cerep in vitro profiling (protein binding, absorption, metabolic stability, off target activity); format: in vitro ADME; details: Caco-2, P-gp, human liver microsomes, CYPs, HepG2 viability, hERG

Q: Which results are given for Cc1cc2c(c(=O)o1)C=C1CCC(C(C)CNCc3ccc(O)cc3)CC1O2 (stereo not shown) [TP70]?
A: IC50 [1]: 300 nM; brain concentration ([2]; brain at 2 h, 25 mg/Kg i.v.): 160 µM; CNS penetration ([2]; i.v., mice): good CNS penetration; plasma concentration ([2]; plasma at 5 min, 25 mg/Kg i.v.): 190 µM; elimination t½ ([2]; plasma, i.v., 3-compartment model fit): 2.5 h; Average concentration of TP70 in plasma ([3]; iv route, 5 min): 16.6 ± 6.1 mg/L; Average concentration of TP70 in plasma ([3]; iv route, 15 min): 10.2 ± 4 mg/L; Average concentration of TP70 in plasma ([3]; iv route, 30 min): 8.2 ± 3.5 mg/L; Average concentration of TP70 in plasma ([3]; iv route, 60 min): 3.7 ± 0.8 mg/L; Average concentration of TP70 in plasma ([3]; iv route, 120 min): 2.02 ± 0.6 mg/L; Average concentration of TP70 in plasma ([3]; iv route, 240 min): 1.8 ± 0.5 mg/L; Average concentration of TP70 in plasma ([3]; iv route, 360 min): 0.9 ± 0.3 mg/L; F ([3]; iv route, fraction): 1; Area under the curve (AUC) ([3]; iv, 25 mg/kg): 989; maximal plasma concentration ([3]; iv, 25 mg/kg): 16.6 ± 6.1 µg/mL; maximal plasma concentration (equivalent) ([3]; iv, 25 mg/kg): 42 µM; t1/2 ([3]; iv, 25 mg/kg): around 30 min; Average concentration of TP70 in plasma ([3]; oral gavage (po) route, 15 min): 2.8 ± 0.09 mg/L; Average concentration of TP70 in plasma ([3]; oral gavage (po) route, 30 min): 3.9 ± 0.14 mg/L; Average concentration of TP70 in plasma ([3]; oral gavage (po) route, 60 min): 6.9 ± 0.17 mg/L; Average concentration of TP70 in plasma ([3]; oral gavage (po) route, 120 min): 4.2 ± 0.19 mg/L; Average concentration of TP70 in plasma ([3]; oral gavage (po) route, 240 min): 2.4 ± 1.37 mg/L; Average concentration of TP70 in plasma ([3]; oral gavage (po) route, 360 min): 1.2 ± 0.23 mg/L; bioavailability (F) ([3]; po versus iv, 25 mg/kg): 68%; Area under the curve (AUC) ([3]; po, 25 mg/kg): 678; maximal plasma concentration ([3]; po, 25 mg/kg): 6.9 ± 0.17 µg/mL; maximal plasma concentration (equivalent) ([3]; po, 25 mg/kg): 17 µM; plaque count (FSB stain), cortical sections ([4]; 2-month-old 5×FAD mice, 6 weeks oral treatment, versus vehicle, LSC): substantial reduction of plaque count; nuclear count (PI stain), cortical sections ([4]; 2-month-old 5×FAD mice, 6 weeks treatment, versus vehicle, LSC): no difference in nuclear count; cerebral amyloid load ([4]; 5×FAD mice): substantially reduce; drug toxicity during the course of treatment ([4]; 5×FAD mice): no apparent drug toxicity; histopathology, hematological counts, and blood chemistry at necropsy ([4]; 5×FAD mice): No abnormalities; levels of toxic Aβ dimers ([4]; 5×FAD mice): substantially reduce; druggable profile versus currently used drugs or reference compounds [5]: druggable profiles better or similar to several currently used drugs or reference compounds

— patent US9802962B2, “Tricyclic pyrone compounds reduce amyloid beta aggregates” (priority 2013, dated 2017)
